Assays:
Assay in all cases: NCI 60 cell one-dose screening (SRB)
Format in all cases: cell-based
[1] = tested on: HCT-116; settings: Homo sapiens; HCT-116, Colon Cancer; single dose 10 µM, 48 h; read-out: Percentage of cellular growth inhibition
Experimental: (§1) The 60 cancerous cell panel screening was performed following the Developmental Therapeutics Program (DTP) of the National Cancer Institute (NIH-NCI), USA. A single dose of 10 µM was used to perform the screening at 48 h incubation and the results were achieved as cancerous cell growth percentage relative to the no-drug control that was converted to an inhibition percentage by subtracting from 100.The cancerous cell lines were grown in RPMI 1640 medium containing 5% foetal bovine serum and 2 mM L-glutamine at 37 °C, 5% CO2, 95% air and 100% relative humidity for 24 h prior to addition of the tested compounds. After 24 h, two plates of each cell line were fixed in situ with TCA to represent a measurement of the cell population for each cell line at the time of drug addition (Tz). Compounds were dissolved in DMSO at 400-fold the desired final maximum test concentration and stored frozen prior to use. At the time of drug addition, an aliquot of frozen concentrate was thawed and diluted to twice the desired final maximum test concentration with complete medium containing 50 µg/mL gentamicin. Aliquots of 100 µL of the compounds dilution was added to the appropriate micro titre wells already containing 100 µL of medium, resulting in the required final drug concentrations of 10 µM. Following compounds addition, the plates were incubated for an additional 48 h at 37 °C, 5% CO2, 95% air, and 100% relative humidity. For adherent cells, the assay was terminated by the addition of cold TCA. Cells were fixed in situ by the gentle addition of 50 µL of cold 50% (w/v) TCA (final concentration, 10% TCA) and incubated for 60 min at 4 °C. The supernatant was discarded, and the plates were washed five times with tap water and air dried. Sulphorhodamine B (SRB) solution (100 µL) at 0.4% (w/v) in 1% acetic acid is added to each well, and plates are incubated for 10 min at room temperature. After staining, unbound dye was removed by washing five times with 1% acetic acid and the plates were air dried. Bound stain was subsequently solubilised with 10 mM trizma base, and the absorbance was read on an automated plate reader at a wavelength of 515 nm. For suspension cells, the methodology was the same except that the assay was terminated by fixing settled cells at the bottom of the wells by gently adding 50 µL of 80% TCA (final concentration, 16% TCA). Using the seven absorbance measurements [time zero, (Tz), control growth, I, and test growth in the presence of drug at the five concentration levels (Ti)], the percentage growth was calculated as: [(Ti−Tz)/(C−Tz)]×100 for concentrations for which Ti>/=Tz [(Ti−Tz)/Tz]×100 for concentrations for which Ti<Tz.

[2] = tested on: KM12; settings: Homo sapiens; KM12, Colon Cancer; single dose 10 µM, 48 h; read-out: Percentage of cellular growth inhibition
Experimental: as §1

[3] = tested on: CAKI-1; settings: Homo sapiens; CAKI-1, Renal Cancer; single dose 10 µM, 48 h; read-out: Percentage of cellular growth inhibition
Experimental: as §1

[4] = tested on: SK-MEL-5; settings: Homo sapiens; SK-MEL-5, Melanoma; single dose 10 µM, 48 h; read-out: Percentage of cellular growth inhibition
Experimental: as §1

[5] = tested on: SNB-19; settings: Homo sapiens; SNB-19, CNS Cancer; single dose 10 µM, 48 h; read-out: Percentage of cellular growth inhibition
Experimental: as §1

[6] = tested on: OVCAR-5; settings: Homo sapiens; OVCAR-5, Ovarian Cancer; single dose 10 µM, 48 h; read-out: Percentage of cellular growth inhibition
Experimental: as §1

[7] = tested on: MCF7; settings: Homo sapiens; MCF7, Breast Cancer; single dose 10 µM, 48 h; read-out: Percentage of cellular growth inhibition
Experimental: as §1

[8] = tested on: SNB-75; settings: Homo sapiens; SNB-75, CNS Cancer; single dose 10 µM, 48 h; read-out: Percentage of cellular growth inhibition
Experimental: as §1

[9] = tested on: COLO 205; settings: Homo sapiens; COLO 205, Colon Cancer; single dose 10 µM, 48 h; read-out: Percentage of cellular growth inhibition
Experimental: as §1

[10] = tested on: MOLT-4; settings: Homo sapiens; MOLT-4, Leukemia; single dose 10 µM, 48 h; read-out: Percentage of cellular growth inhibition
Experimental: as §1

[11] = tested on: UACC-257; settings: Homo sapiens; UACC-257, Melanoma; single dose 10 µM, 48 h; read-out: Percentage of cellular growth inhibition
Experimental: as §1

[12] = tested on: HS 578T; settings: Homo sapiens, Breast Cancer, single dose 10 µM, 48 h, read-out: Percentage of cellular growth inhibition
Experimental: as §1

[13] = tested on: M14; settings: Homo sapiens; M14, Melanoma; single dose 10 µM, 48 h; read-out: Percentage of cellular growth inhibition
Experimental: as §1

[14] = tested on: OVCAR-4; settings: Homo sapiens; OVCAR-4, Ovarian Cancer; single dose 10 µM, 48 h; read-out: Percentage of cellular growth inhibition
Experimental: as §1

[15] = tested on: MALME-3M; settings: Homo sapiens, Melanoma, single dose 10 µM, 48 h, read-out: Percentage of cellular growth inhibition
Experimental: as §1

[16] = tested on: SF-539; settings: Homo sapiens; SF-539, CNS Cancer; single dose 10 µM, 48 h; read-out: Percentage of cellular growth inhibition
Experimental: as §1

[17] = tested on: HOP-62; settings: Homo sapiens; HOP-62, Non-Small Cell Lung Cancer; single dose 10 µM, 48 h; read-out: Percentage of cellular growth inhibition
Experimental: as §1

[18] = tested on: NCI-H322M; settings: Homo sapiens, Non-Small Cell Lung Cancer, single dose 10 µM, 48 h, read-out: Percentage of cellular growth inhibition
Experimental: as §1

[19] = tested on: 786-0; settings: Homo sapiens; 786-0, Renal Cancer; single dose 10 µM, 48 h; read-out: Percentage of cellular growth inhibition
Experimental: as §1

[20] = tested on: CCRF-CEM; settings: Homo sapiens, Leukemia, single dose 10 µM, 48 h, read-out: Percentage of cellular growth inhibition
Experimental: as §1

[21] = tested on: RPMI-8226; settings: Homo sapiens; RPMI-8226, Leukemia; single dose 10 µM, 48 h; read-out: Percentage of cellular growth inhibition
Experimental: as §1

Row | SMILES | inhibition at 10 µM [1] | inhibition at 10 µM [2] | inhibition at 10 µM [3] | inhibition at 10 µM [4] | inhibition at 10 µM [5] | inhibition at 10 µM [6] | inhibition at 10 µM [7] | inhibition at 10 µM [8] | inhibition at 10 µM [9] | inhibition at 10 µM [10] | inhibition at 10 µM [11] | inhibition at 10 µM [12] | inhibition at 10 µM [13] | inhibition at 10 µM [14] | inhibition at 10 µM [15] | inhibition at 10 µM [16] | inhibition at 10 µM [17] | inhibition at 10 µM [18] | inhibition at 10 µM [19] | inhibition at 10 µM [20] | also measured
1 | Clc1ccc(-c2csc(Nc3cccc(Nc4nc(-c5ccc(Cl)cc5)cs4)c3)n2)cc1 [6c, N^1,N^3-bis(4–(4-chlorophenyl)thiazol-2-yl)benzene-1,3-diamine] | 38.5% | -1.4% | 43% | 2.9% | 11.5% | 9.6% | 9.8% | 22.5% | -7.3% | 25.4% | -20.4% | 29.5% | 29.3% | 8.4% | -22.4% | 13.9% | 17.7% | 5% | 29.2% | 10.4% | inhibition at 10 µM [21]: 14.8%
2 | Fc1ccc(-c2csc(Nc3cccc(Nc4nc(-c5ccc(F)cc5)cs4)c3)n2)cc1 [6b, N^1,N^3-bis(4–(4-fluorophenyl)thiazol-2-yl)benzene-1,3-diamine] | 42.3% | 62.4% | 53.6% | 38.8% | 29.8% | 34.5% | 75.3% | 4.8% | 24.3% | 53.6% | 25.4% | 30.7% | 33.2% | 44.3% | 17% | 29.1% | 27.3% | 39.9% | 31.2% | 40.9% | inhibition at 10 µM [21]: 50.5%
3 | Cc1nc(Nc2cccc(Nc3nc(C)c(N=Nc4ccccc4)s3)c2)sc1N=Nc1ccccc1 [5a, N^1,N^3-bis(4-methyl-5-(phenyldiazenyl)thiazol-2-yl)benzene-1,3-diamine] | 14.1% | 52.1% | 54.8% | 8.5% | 42.6% | 19.8% | 52.4% | 38.4% | -4.9% | 32.6% | 2.7% | 19.8% | -7.6% | 30.8% | -7.7% | 15.4% | 9.3% | 22.8% | 18.7% | 12.3% | inhibition at 10 µM [21]: -9.4%
4 | CC(=O)c1sc(Nc2cccc(Nc3nc(C)c(C(C)=O)s3)c2)nc1C [3b, 1,1’-(2,2’-(1,3-Phenylenebis(azanediyl))bis(4-methylthiazole-5,2-diyl))diethanone] | 55.8% | 39.8% | 71.9% | 44.2% | 9.1% | 16.5% | 38.3% | 37.1% | 22.3% | 61.7% | 11.3% | 47.3% | 48.7% | 48.5% | 30.2% | 27.8% | 22.2% | 38.3% | 44.3% | 38.8% | inhibition at 10 µM [21]: 32.1%
